Results on 85 compounds are retold here after ChEMBL document CHEMBL1157539, “Thousands of chemical starting points for antimalarial lead identification” (Nature, 2010).

In the experiment the test system is Plasmodium falciparum. The experiment is described as follows: GSK_TCMDC: Inhibition of Plasmodium falciparum 3D7 in whole erythrocytes, using parasite LDH activity as an index of growth. In kind it is functional, organism-based. The conditions noted are these: Plasmodium falciparum, 3D7.
In the case of `CCN(CC)CCN(Cc1ccc(-c2ccc(C(F)(F)F)cc2)cc1)C(=O)Cn1c(CCc2cccc(F)c2F)nc(=O)c2ccc(C)cc21`, the XC50 was 668 nM.

`CC(C)N1CCC(N(Cc2ccc(-c3ccc(Cl)cc3)cc2)C(=O)Cn2c(CCc3cccc(F)c3F)cc(=O)c3ccccc32)CC1` returned an XC50 of 929 nM.

Take `CCNc1cc(C(=O)N[C@@H](Cc2ccccc2)[C@H](O)CNCCCc2ccc(OC)cc2)cc(N2CCCC2=O)c1`: the XC50 stood at 556 nM. Consider `Cn1cncc1CCN(Cc1ccc(-c2ccc(C(F)(F)F)cc2)cc1)C(=O)Cn1c(CCc2cccc(F)c2F)cc(=O)c2cccnc21`, for which the XC50 is 853 nM. With `COc1cccc(-c2cccc(CNC3CCN(CC4Cn5c(=O)ccc6ccc(F)c4c65)CC3)c2)c1` (stereo not given) the figure was 934 nM. `COc1cc2nc(N3CCC(CNC(=O)c4cc5ccccc5s4)CC3)nc(N)c2cc1OC` showed an XC50 of 293 nM.

As to `CCCCCCc1cnc2nc(N)nc(N)c2c1C`, the XC50 is 194 nM. On to `CC(C)[C@H](NCC(=O)c1ccccc1)C(=O)O`, for which the XC50 stood at 783 nM. Then `COc1ccc2nccc([C@@H](O)CN3CCC(NCc4cc5oc(=O)n(C)c5cc4F)CC3)c2c1`, with 661 nM; and `O=C(Nc1ccc(Br)cc1)c1cc(Br)ccc1NS(=O)(=O)c1cc(C(F)(F)F)cc(C(F)(F)F)c1`, with 885 nM; and `C=CCN1Cc2c(O)cccc2C(c2ccc(O)c(O)c2)C1` (stereo not given), with 670 nM. In the case of `CCCCc1cc(NCc2ccncc2)nc(Nc2ccc(OC)cc2)n1`, the XC50 came out at 1060 nM. With `CCc1cn2c3c(cc(C(=O)N[C@@H](Cc4ccccc4)[C@H](O)CNCCOC)cc13)N(C)S(=O)(=O)CC2`, the XC50 came to 954 nM. With `CCCCNCC(O)COc1ccccc1-c1ccc(N/N=C/c2cccc3ccccc23)nn1` (stereo not given) the figure was 891 nM.

For the compound `CN(Cc1ccc(NC(=O)CCC2CCN(C(=O)/C=C/c3ccc(Cl)c(Cl)c3)CC2)cc1)C1CCOCC1`, the XC50 was 1730 nM. Then `CCCN(CCCCCCNCCc1ccc(Cl)cc1)CCc1ccc(O)c(O)c1`, with 943 nM. Compound `C=C(NC(=O)C1CCCCC1)C(=O)OC` gave an XC50 of 849 nM. As for `Fc1ccc2[nH]c(-c3cccc(-c4ccc(CNCCN5CCNCC5)cc4)c3)nc2c1`, the XC50 came out at 904 nM.

In the case of `CCC(C)c1ccc(NC(=O)c2ccc(S(=O)(=O)Nc3ccc(OC)c(N4CCN(CC5CC5)CC4)c3)cc2)cc1` (stereo not given), the XC50 is 703 nM. With `COC(=O)c1ccc2nc(-c3cc(-c4cccc(-c5ccccc5)c4)cnc3N)[nH]c2c1` the figure was 211 nM.

`Cc1ccc(CNC(=O)c2cc3c(=O)n4ccccc4nc3n(CCCN3CCOCC3)c2=N)cc1` returned an XC50 of 1090 nM. With `Cc1ccc(C(=O)NC2C(=O)NC2c2ccccc2)c(C)c1` (stereo not given) the figure was 955 nM; with `C[C@H](NC(=O)c1c(OC2CN(C(c3ccccc3)c3ccccc3)C2)c(-c2ccccc2)nc2ccccc12)C1CCCCC1`, 978 nM. For the compound `FC(F)(F)Oc1cccc(CNc2noc(-c3sccc3Br)n2)c1`, the XC50 is 875 nM. For `COc1ccc(CN2CCCC(OC(c3ccc(F)cc3)c3ccc(F)cc3)C2)c(O)c1` (stereo not given), the XC50 was found to be 607 nM. In turn, `CC(=O)Nc1ccc(OCCN(CC(C)C)c2ccc(C#N)c(C(F)(F)F)c2)c(Cl)c1` had an XC50 of 786 nM. With `O=C(Nc1cccc(CN2CCCN(Cc3ccc(O)cc3)CC2)c1)c1ccc2ccccc2n1` the figure was 938 nM. As to `O=C(/C=C/c1ccc(C(F)(F)F)cc1)NCCCCCN1CCC(c2c[nH]c3ccccc23)CC1`, the XC50 turned out to be 683 nM. With `COc1ccc2nccc([C@@H](O)CN3CCC(NC(=O)C(c4ccsc4)N4CCN(c5ccccc5)CC4)CC3)c2c1` (stereo not given in full) the figure was 442 nM; with `COc1cccc2c1CCN(CCN1CCC(CNC(=O)c3ccc(-c4ccc(C#N)cc4)cc3)CC1)C2`, 758 nM. In turn, `CC(=O)Nc1nc(C(=O)Nc2cccc(-c3ccc(-c4nc5cc(F)ccc5[nH]4)cc3)c2)cs1` had an XC50 of 288 nM. `CN(C)c1ccc(Br)c(Br)c1` gave an XC50 of 975 nM.

Regarding `Cc1noc(-c2ccccc2)c1NC(=O)N1CCN(CCCCCCNC(=O)/C=C/c2ccc(Cl)c(Cl)c2)CC1`, the XC50 amounted to 884 nM.

For `O=C(NCc1cccc(F)c1)Nc1cccc(-c2cccc(-c3nc4ccccc4[nH]3)c2)c1`, the XC50 is 389 nM. Compound `CNC(=O)COc1cc(C)c(C2CCN(CCCCNC(=O)c3ccc(-c4ccc(C(F)(F)F)cc4)cc3)CC2)cc1C` yielded an XC50 of 868 nM. The compound `O=C(/C=C/c1ccc(-c2nc3cc(F)c(F)cc3[nH]2)cc1)NCc1ccc(Cl)c(Cl)c1` returned an XC50 of 938 nM.

On to `CC1CN=C(Nc2ncc(Cl)cc2Cl)N1` (stereo not given), for which the XC50 is 237 nM. Compound `COc1ccc2nccc(N3CCC(CCNCc4ccc5c(n4)NC(=O)CO5)CC3)c2c1` yielded an XC50 of 705 nM. The compound `FC(F)(F)COc1ccc(CNCCCCCCNCc2ccc(OCC(F)(F)F)c3ccccc23)c2ccccc12` gave an XC50 of 400 nM.

`O=C(Nc1ccc(OC(F)(F)F)cc1)NC1CCN(c2ccnc3ccccc23)C1` (stereo not given) yielded an XC50 of 244 nM. In turn, `CCNc1cc(C(=O)N[C@@H](Cc2ccccc2)[C@H](O)CNCc2cccc(OC)c2C)cc(N2CCCCS2(=O)=O)c1` registered an XC50 of 518 nM. In turn, `Cc1cc(F)ccc1-c1nc(NCCCN2CCCC2=O)nc2c1ccc(=O)n2-c1c(F)cccc1F` showed an XC50 of 1020 nM. The compound `CC(=O)Nc1cccc(C(=O)Nc2cccc(-c3cccc(-c4nc5ccccc5[nH]4)c3)c2)c1` returned an XC50 of 594 nM. The compound `CCCCN(CCCC)CCNC(=O)c1cccc(NC(=O)N2CCc3cc(SC)c(C(F)(F)F)cc32)c1` registered an XC50 of 809 nM.

Regarding `CCCc1ccc(NC(=O)c2ccc(CN3CCCN(Cc4cccc(O)c4)CC3)cc2)cc1`, the XC50 is 396 nM. Consider `OCCN1CCN(Cc2ccc(-c3ccc(-c4nc5ccccc5[nH]4)cc3)cc2)CC1`, for which the XC50 came to 616 nM. Take `CC(C)c1ccc(OCCCON2C(=N)N=C(N)NC2(C)C)cc1`: the XC50 was found to be 3.2 nM. With `O=C(NCCN1CCCC1)c1cccc(-c2ccc(-c3nc4cc(C(F)(F)F)ccc4[nH]3)cc2)c1` the figure was 752 nM. In turn, `Nc1cccc(CNCc2ccc(-c3ccc(-c4nc5cc(C(F)(F)F)ccc5[nH]4)s3)cc2)c1` returned an XC50 of 438 nM.

In turn, `CC(C)(C)C(Cn1ccnc1)NCc1c[nH]nc1-c1ccc(-c2ccccc2)cc1` (stereo not given) showed an XC50 of 1060 nM. The compound `Cc1nnc(-c2cccc(Nc3ccnc4cc(-c5nccs5)ccc34)c2)o1` gave an XC50 of 632 nM. With `CC(C)CCNC(=O)c1cc(C(=O)c2cc(F)ccc2O)cn(CCC(C)C)c1=O` the figure was 753 nM. Then `O=C(Nc1ccc(F)c(Cl)c1)NC1CCN(c2ccnc3cc(Cl)ccc23)C1` (stereo not given), with 215 nM; and `Clc1ccc(OCCC2CCN(CCCCCCCN3CCC(CCOc4ccc(Cl)c(Cl)c4)CC3)CC2)cc1Cl`, with 624 nM.

As for `COc1cccc(CNc2noc(-c3c(-c4ccccc4)noc3C)n2)c1OC`, the XC50 amounted to 875 nM.

As for `CC(CNCc1cn(Cc2cc(Br)cc(Br)c2)c2ccccc12)CNc1cc(=O)c2ccccc2[nH]1` (stereo not given), the XC50 was 464 nM. The compound `Cc1noc(C)c1-c1cccc(CNCc2cccc(-c3cccc(-c4nc5ccccc5[nH]4)c3)c2)c1` had an XC50 of 377 nM. With `N=c1n(CCN2CCCCC2)c2ccccc2n1CC(=O)c1cccc([N+](=O)[O-])c1` the figure was 879 nM. `CN1CCC(C(=O)Nc2cccc(-c3ccc(-c4nc5cc(C(F)(F)F)ccc5[nH]4)s3)c2)CC1` returned an XC50 of 724 nM. As for `CC(C)(C)C(=O)Oc1ccc(CC2NCCc3cc(OC(=O)C(C)(C)C)c(OC(=O)C(C)(C)C)cc32)cc1OC(=O)C(C)(C)C` (stereo not given), the XC50 came out at 419 nM. Turning to `CC(=O)C1=NN(c2ccc(Cl)cc2)C(c2cccs2)N1c1ccccc1` (stereo not given), the XC50 is 397 nM. `O=C(Nc1ccc2c(c1)CCC2)c1cccc(N2CCN(c3ccncc3)CC2)c1` gave an XC50 of 971 nM. Turning to `CC(C)N(CC(=O)c1ccc(O)c(C(=O)O)c1)Cc1ccccc1`, the XC50 was found to be 187 nM. With `N#Cc1ccc2c(c1)CCN(CCC1CCC(NC(=O)/C=C/c3ccc(F)c4ccccc34)CC1)CC2` (stereo not given) the figure was 844 nM; with `CCOc1cc(C(C)C)ccc1N1CCN(CCCCNC(=O)c2ccc(NC(=O)c3ccc(Cl)cc3)cc2)CC1`, 416 nM; with `COc1cc(C(=O)Nc2nc3ccccc3[nH]2)ccc1OCC(=O)Nc1cccc(C(F)(F)F)c1`, 738 nM. With `COc1ccc(CNC2CCN(C)CC2)cc1-c1ccc(S(=O)(=O)NCCc2ccccn2)s1` the figure was 624 nM.

The compound `COc1ccccc1CNc1nc(Nc2ccccc2C)nc2ccccc12` gave an XC50 of 806 nM. With `N#Cc1ccc(N(CCNS(=O)(=O)c2cc(Br)c(Cl)s2)Cc2ccccc2C(F)(F)F)cc1C(F)(F)F` the figure was 857 nM; with `COc1cccc2c(C)cc(NCc3ccc(Cl)cc3)nc12`, 860 nM; with `O=[N+]([O-])c1cccc(CNC2CCN(Cc3ccc(Cl)c(Cl)c3)CC2)c1`, 456 nM. For `COc1ccc(C(=O)Cn2nc(-c3ccc(Cl)cc3)ccc2=O)c(OC)c1`, the XC50 was 498 nM. `Cc1cccc(NC(=O)Nc2ccc(I)c(OCCN(C)C)c2)c1C` registered an XC50 of 725 nM. For the compound `CNC(=S)NCc1cnc2ccccn12`, the XC50 came out at 195 nM.

For `Cc1nc2nc(N)nc(N)c2c(C)c1Cc1ccc(Cl)cc1`, the XC50 was determined as 216 nM. Consider `O=C(NCc1ccc(Cl)c(Cl)c1)[C@H]1CNCCN1C(=O)c1ccccc1`, for which the XC50 was 955 nM. With `COc1cccc(-c2ccc3c(-c4cccc(NC(C)=O)c4)cnc(N)c3c2)c1` the figure was 106 nM. Compound `COc1ccccc1C1CN(Cc2coc3ccccc3c2=O)Cc2ccccc2O1` (stereo not given) had an XC50 of 1320 nM.

In turn, `COc1ccc2nccc([C@@H](O)CN3CCC(NCc4ccc5nsnc5c4)CC3)c2c1` had an XC50 of 958 nM.

`CC(=O)Nc1ccc(NC(=O)c2cc(-c3ccc(C)cc3O)n[nH]2)cc1` had an XC50 of 490 nM. Then `O=c1cc(N2CCCNCC2)c(Cl)nn1Cc1ccc(NS(=O)(=O)c2ccc(Oc3ccccc3)cc2)cc1`, with 800 nM; and `Cc1cccc2nc(-c3ccc(-c4cccc(C(=O)N5CCCCC5C(C)O)c4)s3)[nH]c12` (stereo not given), with 636 nM. Then `COc1cc2c(Nc3cccc(NC(=O)c4ccccc4)c3)ncnc2cc1OCCCN1CCOCC1`, with 155 nM; and `CCC(C)NC(=O)CN1CN(c2ccccc2)C2(CCN(C(=O)c3ccc(C(C)(C)C)cc3)CC2)C1=O` (stereo not given), with 125 nM; and `COc1ccc(NC(=O)Nc2ccc(-c3ccccc3)cc2Cl)cc1N1CCN(C)CC1`, with 875 nM.
